Laboratory results as given in patent US20020193377A1, “Quinazolines as MMP-13 inhibitors” (priority 2001, published 2002).

The compounds below were run against T1, human collagenase-3 catalytic domain enzyme (MMP13) (Homo sapiens, UniProt P45452) (assay: MMP13CD Thiopeptolide Assay).
T1 construct: human collagenase-3 catalytic domain enzyme
Format: biochemical
Protocol: MMP13CD Thiopeptolide Assay: Proteolysis of the thiopeptolide substrate Ac-Pro-Leu-Gly-thioester-Leu-Leu-Gly-OEt is used as the primary screen to determine IC50 values for MMP13 inhibitors. A 100 μl reaction contains 50 mM HEPES, 10 mM CaCl2, pH 7.0 (RT), 1 mM 5,5′-dithiobis(2-nitrobenzoic acid) (DTNB), 100 μM substrate, inhibitor in 2.0% DMSO and 2.5 nM human collagenase-3 catalytic domain enzyme. Inhibitors are screened from 100 μM to 0.5 nM. […] Percentage of control velocity in inhibited treatments is plotted against inhibitor concentration to calculate IC50 values.

Row | Compound | IC50 [nM]
1 | O=C(NCc1ccc2c(c1)OCO2)c1ccc2[nH]c(=O)n(Cc3ccncc3)c(=O)c2c1 [Example 20, 2,4-Dioxo-3-(pyrid-4-ylmethyl)-1,2,3,4-tetrahydroquinazoline-6-carboxylic acid (benzo[1,3]dioxol-5ylmethyl)amide] | 15
2 | Cn1c(=O)n(Cc2cccs2)c(=O)c2cc(C(=O)NCc3ccc4c(c3)OCO4)ccc21 [Example 24, 1-Methyl-2,4-dioxo-3-(thien-2-ylmethyl)-1,2,4,4-tetrahydroquinazoline-6-carboxylic acid (benzo[1,3]dioxol-5-ylmethyl)amide] | 51
3 | O=C(NCc1ccc2c(c1)OCO2)c1ccc2[nH]c(=O)n(Cc3ccc(Cl)cc3)c(=O)c2c1 [Example 25, 3-(4-Chlorobenzyl)-2,4-dioxo-1,2,3,4-tetrahydroquinazoline-6-carboxylic acid (benzo[1,3]dioxol-5-ylmethyl)amide] | 300
4 | Cn1c(=O)n(Cc2ccc(Cl)cc2)c(=O)c2cc(C(=O)NCc3ccc4c(c3)OCO4)ccc21 [Example 26, 3-(4Chlorobenzyl)-1-methyl-2,4-dioxo-1,2,3,4-tetrahydroquinazoline-6-carboxylic acid (benzo[1,3]dioxol-5-ylmethyl)amide] | 96
5 | Cn1c(=O)c2cc(C(=O)NCc3ccc4c(c3)OCO4)ccc2n(C)c1=O [Example 27, 1,3-Dimethyl-2,4-dioxo-1,2,3,4-tetrahydroquinazoline-6-carboxylic acid (benzo[1,3]dioxol-5-ylmethyl)amide] | 29
6 | Cn1c(=O)n(Cc2ccc3c(c2)OCO3)c(=O)c2cc(C(=O)NCc3ccc4c(c3)OCO4)ccc21 [Example 29, 3-(Benzo[1,3]dioxol-5-ylmethyl)-1-methyl-2,4-dioxo-1,2,3,4-tetrahydroquinazoline-6carboxylic acid (benzo[1,3]dioxol-5-ylmethyl)amide] | 28
7 | CCn1c(=O)n(Cc2ccccc2)c(=O)c2cc(C(=O)NCc3ccc4c(c3)OCO4)ccc21 [Example 30, 3-Benzyl-1-ethyl-2,4-dioxo-1,2,3,4-tetraquinazoline-6-carboxylic acid (benzo[1,3]dioxol-5-ylmethyl)amide] | 9
8 | O=C(NCc1ccc2c(c1)OCO2)c1ccc2c(c1)c(=O)n(Cc1ccccc1)c(=O)n2CC1CC1 [Example 31, 3-Benzyl-1-cyclopropylmethyl-2,4-dioxo-1,2,3,4-tetrahydroquinazoline-6-carboxylic acid (benzo[1,3]dioxol-5-ylmethy)amide] | 1700
9 | CC(C)Cn1c(=O)n(Cc2ccccc2)c(=O)c2cc(C(=O)NCc3ccc4c(c3)OCO4)ccc21 [Example 32, 3-Benzyl-1-isobutyl-2,4-dioxo-1,2,3,4-tetrahydroquinazoline-6-carboxylic acid (benzo[1,3]dioxol-5-ylmethyl)amide] | 17
10 | Cn1c(=O)[nH]c(=O)c2cc(C(=O)NCc3ccc4c(c3)OCO4)ccc21 [Example 33, 1-Methyl-2,4-dioxo-1,2,3,4-tetrahydrquinazoline-6-carboxylic acid (benzo[1,3]-dioxol-5-ylmethyl)amide] | 3
11 | COC(=O)c1ccc(Cn2c(=O)c3cc(C(=O)NCc4ccc(OC)cc4)ccc3n(C)c2=O)cc1 [Example 34, Methyl 4-[6-(4-methoxy-benzylcarbamoyl)-1-methyl-2,4-dioxo-1,4-dihydro-2H-quinazolin-3-ylmethyl]-benzoate] | 26
12 | Cn1c(=O)n(C/C=C/c2ccccc2)c(=O)c2cc(C(=O)NCc3ccc4c(c3)OCO4)ccc21 [Example 36, 1-Methyl-2,4-dioxo-3-((E)-3phenylally)-1,2,3,4-tetrahydroquinazoline-6-carboxylic acid (benzo[1,3]dioxol-5-ylmethyl)amide] | 600
13 | O=C(OCc1ccncc1)c1ccc2[nH]c(=O)n(Cc3ccc4c(c3)OCO4)c(=O)c2c1 [Example 45, 4-Pyridylmethyl3-(benzo[1,3]dioxol-5-ylmethyl)-2,4-dioxo-1,2,3,4-tetrahydroquinazoline6-carboxylate] | 7
14 | O=C(NCc1ccc2c(c1)OCO2)c1ccc2[nH]c(=S)n(Cc3ccccc3)c(=O)c2c1 [Example 48, 3-Benzyl-4-oxo-2-thioxo-1,2,3,4-tetrahydroquinazoline-6-carboxylic acid (benzo[1,3]dioxol-5-ylmethyl)amide] | 16
15 | Cn1c(=O)n(Cc2ccc(C(=O)O)cc2)c(=O)c2cc(C(=O)NCc3ccc(O)cc3)ccc21 [Example 49, 4-[6-(4-Hydroxy-benzylcarbamoyl)-1-methyl-2,4-dioxo-1,4-dihydro-2H-quinazolin-3-ylmethyl]-benzoic acid] | 7

Other lines, results leading:

Row | IC50 [nM] | Compound
16 | 9 | O=C(NCc1ccccc1)c1ccc2[nH]c(=O)n(Cc3cccs3)c(=O)c2c1 [Example 21, 2,4-Dioxo3-(thien-2-ylmethyl)-1,2,3,4-tetrahydroquinazoline-6-carboxylic acid benzylamide]
17 | 750 | O=C(OCc1ccccc1)c1ccc2[nH]c(=O)n(Cc3ccccc3)c(=O)c2c1 [Example 37, Benzyl 3-benzyl-2,4-dioxo-1,2,3,4-tetrahydroquinazolne-6-carboxylate]
18 | 1 | O=C(OCc1ccncc1)c1ccc2[nH]c(=O)n(Cc3ccccc3)c(=O)c2c1 [Example 39, 4-Pyridylmethyl 3-benzyl-2,4-dioxo-1,2,3,4-tetrahydroqinazoline-6-carboxylate]
19 | 28 | Cn1c(=O)n(Cc2ccccc2)c(=O)c2cc(C(=O)OCc3ccncc3)ccc21 [Example 40, 4-Pyridylmethyl 3-benzyl-1-methyl-2,4-dioxo-1,3,3,4-tetrahydroquinazoline-6-carboxylate]
20 | 29 | O=C(OCc1ccc2c(c1)OCO2)c1ccc2[nH]c(=O)n(Cc3ccccc3)c(=O)c2c1 [Example 41, Benzo[1,3]dioxol-5-ylmethyl3-benzyl-2,4-dioxo-1,2,3,4-tetrahydroquinazoline-6-carboxylate]
21 | 31 | Cn1c(=O)n(Cc2ccccc2)c(=O)c2cc(C(=O)OCc3ccc4c(c3)OCO4)ccc21 [Example 42, Benzo[1,3]dioxol-5-ylmethyl3-benzyl-1-methyl-2,4-dioxo-1,2,3,4-tetrahydroquinazoline-6-carboxylate]
22 | 11 | O=C(OCc1ccccc1)c1ccc2c(c1)c(=O)n(Cc1ccncc1)c(=O)n2Cc1ccccc1 [Example 43, Benzyl 1-benzyl-2,4-dioxo-3-pyrid-4-ylmethyl-1,2,3,4-tetrahydroquinazoline-6carboxylate]
23 | 4 | O=C(OCc1ccncc1)c1ccc2[nH]c(=O)n(Cc3cccs3)c(=O)c2c1 [Example 44, 4-Pyridylmethyl 2,4-dioxo-3-(thien-2-ylmethyl)-1,2,3,4-tetrahydroquinazoline-6-carboxylate]
24 | 2.5 | O=C(OCc1ccccc1)c1cnc2[nH]c(=O)n(Cc3ccccc3)c(=O)c2c1 [Example 46, Benzyl 3-benzyl-2,4-dioxo-1,2,3,4-tetrahydroprido[2,3-d]pyrimidine-6-carboxylate]
25 | 1210 | O=C(OCc1ccncc1)c1cnc2[nH]c(=O)n(Cc3ccccc3)c(=O)c2c1 [Example 47, 4-Pyridylmethyl 3-benzyl-2,4-dioxo-1,2,3,4-tetrahydropyrido[2,3-α]pyrimidine-6-carboxylate]
